Series [1] in a line: Radiometabolite analysis in monkey plasma (gradient HPLC). The format is in vivo, cynomolgus monkey. To be noted: baseline PET. The protocol:
The technique published earlier was utilized for the analysis of radiometabolites in NHP blood plasma. During the entire PET measurement, the percentage of the injected radioligand and its corresponding radioactive metabolites and radioactivity was measured with a reverse-phase HPLC system with UV absorbance detector (λ = 254 nm) and a radioactive detector. […] The blood samples were centrifuged at 4000 rpm for 2 min to separate plasma. From the centrifuged plasma, the resulting plasma was withdrawn and spiked with 1.4 times its volume of acetonitrile before being spun at 6000 rpm for 4 min. The supernatant, collected after the spun at 6000 rpm, was diluted with 3 mL of water, which was then injected into the HPLC system. The HPLC system was constructed with an Agilent 1200 series binary pump (Agilent, Santa Clara, CA, USA), a Rheodyne 7725i (Thermo Scientific, Waltham, MA, USA) manual injection valve, a 5.0 mL loop, and an Oyokoken S-2493Z radiation detector (Oyokoken, Tokyo, Japan) fitted with 50 mm lead shielding, which houses the detector. Chromatographic separation of the radiometabolites from the unchanged radioligand was performed via gradient elution on a semi-preparative reverse-phase ACE 5 µm C18 HL column (250 × 10 mm) using a mobile phase of acetonitrile (A) and ammonium formate 0.1 M (B). A flow rate of 5.0 mL/min was utilized according to the program 0–6.0 min: (A/B) 40:60 → 90:10 v/v; 6.0–10.0 min: (A/B) 90:10 (v/v). The radioactive peak corresponding to the parent radioligand was then integrated from the data output of the HPLC column. The area of this peak was calculated relative to the total area detected for all radioactive compounds. To evaluate the radioactivity recovery from the system, the measurement was taken from a 2 mL aliquot of the eluate taken from the HPLC column and measured against the total injected radioactivity.

A short description of series [2]: Stability of formulated radioligand in PBS (analytical HPLC). The format is physicochemical. To be noted: pH 7.4, for 120 min. Here is the method:
The radiochemical purity and stability of all three radioligands ([^11C]3, [^18F]1 and [^18F]2) were determined using analytical HPLC coupled with an XBridge analytical column (C18 5 µm, 4.6 × 150 mm particle size), a Merck-Hitachi L-7100 pump, an L-7400 UV detector, and a GM tube for radioactivity detection (VWR International). A mixture of acetonitrile (25%) and HCO2NH4 (0.1 M aq. solution) (75%) with a flow rate of 2 mL/min was used as HPLC isocratic mobile phase. The HPLC liquid flow was monitored using a UV absorbance detector (λ = 254 nm) in conjunction with a radioactive detector (BETA-flow, Beckman, Fullerton, CA, USA). All three radioligands were eluted with a retention time (tR) of 4.0–4.5 min, and the total run time of the HPLC program was 9 min. The identity of the radiolabeled compound was confirmed by co-injecting the corresponding authentic reference standard.

Regarding `C[C@@H]1C[C@@H]([18F])CN1c1c(C#N)c2c(N)nccc2n1C` [[^18F]1, 4-Amino-2-((2R,4R)-4-[^18F]fluoro-2-methylpyrrolidin-1-yl)-1-methyl-1H-pyrrolo[3,2-c]pyridine-3-carbonitrile], the “Parent compound, share of eluted plasma radioactivity” value was “over 90%” in series [1] (at 5 min) and “around 10%” in series [1] (at 90 min). In series [2], the “Stability in PBS buffer” value is given as “demonstrated stability”.

Regarding `C[C@@H]1C[C@@H]([18F])CN1c1c(C#N)c2c(N)ncnc2n1C` [[^18F]2, 4-Amino-6-((2R,4R)-4-[^18F]fluoro-2-methyl Pyrrolidin-1-yl)-7-methyl-7H-pyrrolo[2,3-d]pyrimidine-5-carbonitrile], the “Parent compound, share of eluted plasma radioactivity” value in series [1] (at 5 min) is on record as “over 90%”; in series [1] (at 90 min) it was “around 10%”. Further, in series [2], the “Stability in PBS buffer” value is listed as “demonstrated stability”.

The record behind these values is article PMC12735872, “Development of ^18F/^11C-Labeled Pyrrolo-Pyridine/Pyrimidine LRRK2 Selective PET Radioligands” (Pharmaceuticals, 2025).
